Test systems include MDA-MB-435; SF-295; HCC 2998; NCI-H226; EKVX; A549; Malme-3M; UO-31; SK-OV-3; TK-10; SK-MEL-5; CAKI-1; MDA-N; HOP-62; SNB-19; SK-MEL-28; HCT-15; SN12C; KM12.
Assay in all cases: NCI anticancer screen, dose series, 48 h

The results in this text go back to ChEMBL document CHEMBL1201862, “PubChem BioAssay data set” (2004).

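48-hour exposure; five concentrations; linearly interpolated endpoints. GI50 marks 50% less growth.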 Calls of active or inactive are those of the source. Cut-off read from the data, not from the text of the source: active = GI50 up to about 1.1 µM and inactive = higher.

On to `CCOC(=O)/C(C[C@H]1OC(C)(C)O[C@@H]1[C@H]1COC(C)(C)O1)=N/O`, for which the GI50 in the test on MDA-MB-435, in the test with SF-295, in the test with HCC 2998, in the test with NCI-H226, in the test with EKVX and in the test with A549 was > 100 µM (inactive) in each case. Further, the GI50 in the test on Malme-3M, in the test with UO-31, in the test on SK-OV-3, in the test on TK-10, with SK-MEL-5 and with CAKI-1 was > 100 µM (inactive) each time. In addition, the GI50 was > 100 µM (inactive) in the test with MDA-N; > 100 µM (inactive) in the test with HOP-62; > 100 µM (inactive) in the test with SNB-19; > 100 µM (inactive) with SK-MEL-28; above 100 µM in the test with HCT-15; > 100 µM (inactive) in the test with SN12C. In the test on KM12, the GI50 is > 100 µM (inactive).
Take `O=C1C(Cl)=C(N2CCC[C@@H]2CO)C(=O)c2c(O)ccc(O)c21`: the GI50 is 1.51 µM (inactive) in the test on MDA-MB-435; 1.79 µM (inactive) with SF-295; 2.02 µM (inactive) with HCC 2998; 1.71 µM (inactive) in the test on NCI-H226; 1.87 µM (inactive) in the test with EKVX; 2.08 µM (inactive) in the test on A549. Besides, the GI50 in the test with Malme-3M was 1.64 µM (inactive); in the test on UO-31, 1.82 µM (inactive); in the test on SK-OV-3, 2.9 µM (inactive); in the test with TK-10, 1.88 µM (inactive); in the test on SK-MEL-5, 1.01 µM (active); in the test on CAKI-1 it was 1.58 µM (inactive). For the same compound, the GI50 in the test with MDA-N is 1.54 µM (inactive); with HOP-62, 1.58 µM (inactive); in the test on SNB-19, 1.66 µM (inactive); with SK-MEL-28, 1.82 µM (inactive); in the test with HCT-15, 1.87 µM; in the test with SN12C, 1.79 µM (inactive). Also, the GI50 with KM12 was 1.75 µM (inactive).
Regarding `CCc1cc2c(c3c1CCCC3=O)CC1(C2)Cc2cc(CC)c3c(c2C1)C(=O)CCC3`, the GI50 in the test on MDA-MB-435 was 47.2 µM (inactive); in the test with SF-295, > 100 µM (inactive); with HCC 2998, > 100 µM (inactive); with NCI-H226, > 100 µM (inactive); in the test on EKVX, > 100 µM (inactive); in the test with A549, > 100 µM (inactive). For the same compound, the GI50 in the test on Malme-3M was 25.3 µM (inactive); in the test with UO-31, > 100 µM (inactive); with SK-OV-3, > 100 µM (inactive); in the test on TK-10, > 100 µM (inactive); in the test with SK-MEL-5, 54.3 µM (inactive); in the test with CAKI-1, 89.5 µM (inactive). Besides, the GI50 in the test on MDA-N was > 100 µM (inactive); with HOP-62 it was > 100 µM (inactive); in the test on SNB-19, > 100 µM (inactive); in the test on SK-MEL-28 it was > 100 µM (inactive); in the test with HCT-15 it was above 100 µM; with SN12C it was > 100 µM (inactive). In the test with KM12, the GI50 was 47.2 µM (inactive).
Consider `O=C(CCC(C(=O)OCc1ccccc1)C(=O)OCc1ccccc1)Nc1ccc(OCc2ccccc2)cc1`, for which the GI50 was 67.8 µM (inactive) with MDA-MB-435; > 100 µM (inactive) with SF-295; > 100 µM (inactive) with HCC 2998; > 100 µM (inactive) in the test with NCI-H226; > 100 µM (inactive) with EKVX; 35.9 µM (inactive) with A549. In addition, the GI50 in the test with Malme-3M is > 100 µM (inactive); with UO-31, > 100 µM (inactive); in the test with SK-OV-3, > 100 µM (inactive); with TK-10 it was 63.4 µM (inactive); with CAKI-1 it was > 100 µM (inactive); in the test on MDA-N, 49.8 µM (inactive). Further, the GI50 in the test with HOP-62 is > 100 µM (inactive); with SNB-19 it was 83.2 µM (inactive); in the test on SK-MEL-28 it was > 100 µM (inactive); in the test with HCT-15, 14 µM; with SN12C it was > 100 µM (inactive); in the test on KM12, > 100 µM (inactive).
For the compound `CN(C)CCCNC(=O)N/N=C/c1ccc([N+](=O)[O-])cc1`, the GI50 was > 100 µM (inactive) in the test with MDA-MB-435; 78.2 µM (inactive) in the test with SF-295; > 100 µM (inactive) in the test with HCC 2998; > 100 µM (inactive) in the test with NCI-H226; > 100 µM (inactive) in the test on A549; 40.2 µM (inactive) in the test with Malme-3M. Also, the GI50 in the test on UO-31 was > 100 µM (inactive); in the test with SK-OV-3, > 100 µM (inactive); in the test with TK-10, > 100 µM (inactive); in the test on SK-MEL-5 it was > 100 µM (inactive); with CAKI-1 it was > 100 µM (inactive); in the test with MDA-N it was 82.4 µM (inactive). For the same compound, the GI50 with HOP-62 is > 100 µM (inactive); with SNB-19 it was > 100 µM (inactive); with SK-MEL-28, > 100 µM (inactive); in the test with HCT-15, above 100 µM; with SN12C it was > 100 µM (inactive); in the test with KM12, 95.3 µM (inactive).
Take `C(#C[C@@]12CCC[C@@H]1NCO2)c1ccc2c(c1)OCO2`: the GI50 in the test with MDA-MB-435 is 61.1 µM (inactive); in the test with SF-295, 50.6 µM (inactive); with HCC 2998 it was 17.6 µM (inactive); in the test with NCI-H226, > 100 µM (inactive); in the test with EKVX it was > 100 µM (inactive); with A549, > 100 µM (inactive). Moreover, the GI50 was 28.1 µM (inactive) in the test on Malme-3M; 30.3 µM (inactive) with UO-31; > 100 µM (inactive) in the test on SK-OV-3; 73.3 µM (inactive) in the test on TK-10; 33.3 µM (inactive) in the test with SK-MEL-5; 67.1 µM (inactive) in the test on CAKI-1. The GI50 with MDA-N is 61.5 µM (inactive); in the test on HOP-62, 87.3 µM (inactive); in the test with SNB-19, > 100 µM (inactive); in the test on SK-MEL-28, 35.6 µM (inactive); in the test on HCT-15, 54.8 µM; in the test on KM12 it was 69.7 µM (inactive).
`O=c1c2ccccc2oc2c1ccc1ncccc12`: the GI50 was 25.7 µM (inactive) with MDA-MB-435; 12.9 µM (inactive) in the test on SF-295; 30.4 µM (inactive) with HCC 2998; 13.3 µM (inactive) in the test with NCI-H226; 8.2 µM (inactive) with EKVX; 5.4 µM (inactive) in the test with A549. Also, the GI50 in the test on Malme-3M is 14.8 µM (inactive); with UO-31, 5.93 µM (inactive); in the test on SK-OV-3, 6.38 µM (inactive); in the test on TK-10 it was 6.73 µM (inactive); in the test on SK-MEL-5, 11.5 µM (inactive); in the test on CAKI-1, 3.34 µM (inactive). In addition, the GI50 is 20 µM (inactive) in the test on MDA-N; 15 µM (inactive) in the test with HOP-62; 23 µM (inactive) in the test with SK-MEL-28; 11.9 µM with HCT-15; 10.6 µM (inactive) in the test on SN12C; 24.2 µM (inactive) in the test with KM12.
As for `O=c1c2cccnc2[nH]c2ccc3[nH]ncc3c12`, the GI50 in the test with MDA-MB-435 is > 10 µM (inactive); in the test on SF-295 it was > 10 µM (inactive); with HCC 2998 it was > 10 µM (inactive); with NCI-H226, > 10 µM (inactive); in the test on EKVX, 9.33 µM (inactive); with A549, > 10 µM (inactive). For the same compound, the GI50 is > 10 µM (inactive) with Malme-3M; > 10 µM (inactive) with SK-OV-3; > 10 µM (inactive) in the test on TK-10; > 10 µM (inactive) in the test with SK-MEL-5; 7.45 µM (inactive) in the test with CAKI-1; > 10 µM (inactive) in the test with MDA-N. In addition, the GI50 with HOP-62 was > 10 µM (inactive); with SNB-19 it was > 10 µM (inactive); in the test with SK-MEL-28, > 10 µM (inactive); in the test with HCT-15 it was 6.18 µM; in the test with SN12C, > 10 µM (inactive); in the test with KM12 it was 5.45 µM (inactive).
In the case of `O=C(CCCCCCC(=O)Nc1cccnc1)NO` [PYROXAMIDE], the GI50 in the test on MDA-MB-435 was 2.79 µM (inactive); with SF-295, 21.2 µM (inactive); in the test with HCC 2998 it was 4.61 µM (inactive); in the test on NCI-H226, 36.3 µM (inactive); in the test on EKVX, 47.5 µM (inactive); in the test with A549, 21.7 µM (inactive). Also, the GI50 is 0.902 µM (active) with Malme-3M; 6.5 µM (inactive) in the test with UO-31; 5.19 µM (inactive) in the test with SK-OV-3; 7.11 µM (inactive) in the test on TK-10; 1.21 µM (inactive) in the test with SK-MEL-5; 16.6 µM (inactive) in the test on CAKI-1. Also, the GI50 with MDA-N was 2.62 µM (inactive); in the test with HOP-62, 7.16 µM (inactive); in the test on SNB-19 it was 16.1 µM (inactive); in the test on SK-MEL-28, 4.4 µM (inactive); with HCT-15, 34.4 µM; in the test with KM12, 2.93 µM (inactive).
With `O=C1CC(Cc2n[nH]c3c2CCCC3)CC(=O)N1`, the GI50 with MDA-MB-435, with SF-295, with HCC 2998, in the test with NCI-H226, in the test with EKVX and with A549 was > 100 µM (inactive) throughout. Also, the GI50 in the test on Malme-3M, with SK-OV-3, in the test on TK-10, in the test on SK-MEL-5, with CAKI-1 and in the test with MDA-N was > 100 µM (inactive) in each case. Moreover, the GI50 is > 100 µM (inactive) in the test with HOP-62; > 100 µM (inactive) in the test with SK-MEL-28; above 100 µM in the test on HCT-15; > 100 µM (inactive) in the test on SN12C; > 100 µM (inactive) with KM12.
Turning to `O=C(NC1CCC(=O)N1C(=O)OCc1ccccc1)OCc1ccccc1` (stereo not given), the GI50 in the test with MDA-MB-435, in the test on SF-295, in the test with HCC 2998, with NCI-H226, with A549 and with Malme-3M was > 100 µM (inactive) each time. The GI50 in the test with UO-31, in the test with SK-OV-3, with TK-10, in the test with SK-MEL-5, in the test on CAKI-1 and in the test on MDA-N was > 100 µM (inactive) each time. The GI50 with HOP-62 is > 100 µM (inactive); in the test with SNB-19, > 100 µM (inactive); in the test on SK-MEL-28 it was > 100 µM (inactive); in the test on HCT-15, above 100 µM; with SN12C, > 100 µM (inactive); in the test on KM12, > 100 µM (inactive).
